Laboratory results published in ChEMBL document CHEMBL1201862, “PubChem BioAssay data set” (2004).
Values joined by “and” are separate entries in the source; they are usually repeats but may differ in a detail not shown here. Equal entries are not always repeated. Active and inactive are the calls of the source.

Key:
[1] = target: Cytochrome P450 2D6 (Homo sapiens, UniProt P10635);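 further: CYP2D6 member of a cytochrome P450 panel assay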
[2] = target: Cytochrome P450 3A4 (Homo sapiens, UniProt P08684);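 further: CYP3A4 tested as one member of a cytochrome P450 panel screen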
Sequence of Cytochrome P450 3A4 (P08684 whole entry): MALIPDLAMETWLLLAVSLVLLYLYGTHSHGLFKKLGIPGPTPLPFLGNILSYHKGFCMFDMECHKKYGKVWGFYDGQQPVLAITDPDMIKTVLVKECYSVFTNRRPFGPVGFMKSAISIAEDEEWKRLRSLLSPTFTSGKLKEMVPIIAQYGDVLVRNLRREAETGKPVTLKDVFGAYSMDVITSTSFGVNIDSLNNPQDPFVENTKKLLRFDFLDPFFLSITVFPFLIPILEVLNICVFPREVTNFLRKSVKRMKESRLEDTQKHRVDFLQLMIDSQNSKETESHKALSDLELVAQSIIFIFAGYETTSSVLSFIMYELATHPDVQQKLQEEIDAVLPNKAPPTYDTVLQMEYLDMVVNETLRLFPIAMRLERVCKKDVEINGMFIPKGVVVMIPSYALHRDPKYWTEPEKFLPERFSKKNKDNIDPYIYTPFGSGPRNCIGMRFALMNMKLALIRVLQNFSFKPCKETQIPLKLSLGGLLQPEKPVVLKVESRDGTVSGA

[3] = target: T1, Cytochrome P450 1A2 (Homo sapiens, UniProt P05177);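 further: PubChem cytochrome P450 panel assay, CYP1A2 panel member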
T1 sequence (P05177 whole entry): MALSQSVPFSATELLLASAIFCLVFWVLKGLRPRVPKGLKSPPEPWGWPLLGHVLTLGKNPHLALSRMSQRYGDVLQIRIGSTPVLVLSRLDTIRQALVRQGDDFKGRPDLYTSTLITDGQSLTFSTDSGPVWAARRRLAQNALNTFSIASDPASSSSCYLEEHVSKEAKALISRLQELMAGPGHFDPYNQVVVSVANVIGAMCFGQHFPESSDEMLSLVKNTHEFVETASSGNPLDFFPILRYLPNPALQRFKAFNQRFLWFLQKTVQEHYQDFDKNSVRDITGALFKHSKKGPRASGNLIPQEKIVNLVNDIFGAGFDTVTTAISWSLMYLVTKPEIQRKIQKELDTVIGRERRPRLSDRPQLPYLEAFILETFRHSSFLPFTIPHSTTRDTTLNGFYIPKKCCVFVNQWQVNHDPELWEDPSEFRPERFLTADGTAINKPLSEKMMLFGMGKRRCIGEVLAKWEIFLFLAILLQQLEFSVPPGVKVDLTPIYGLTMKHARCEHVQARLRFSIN

[4] = inhibitors of firefly luciferase expression or activity, dose response, H4 neuroglioma cells, luminescence (AID 1990); type: functional, cell-based
[5] = Luminescence Cell-Based Dose Response HTS to Identify Inhibitors of 5'UTR Stem-Loop Driven Prion Protein mRNA Translation in H4 Neuroglioblastoma Cells. [Related pubchem assays: 1827 (Project Summary), 1813 (Primary HTS)]; type: functional
[6] = inhibitors of SNCA 5'UTR-driven reporter translation, confirmation, H4 neuroglioma cells, luminescence (AID 1988); type: functional, cell-based
[7] = target: Cytochrome P450 2C9 (Homo sapiens, UniProt P11712)
Sequence of Cytochrome P450 2C9 (P11712 whole entry): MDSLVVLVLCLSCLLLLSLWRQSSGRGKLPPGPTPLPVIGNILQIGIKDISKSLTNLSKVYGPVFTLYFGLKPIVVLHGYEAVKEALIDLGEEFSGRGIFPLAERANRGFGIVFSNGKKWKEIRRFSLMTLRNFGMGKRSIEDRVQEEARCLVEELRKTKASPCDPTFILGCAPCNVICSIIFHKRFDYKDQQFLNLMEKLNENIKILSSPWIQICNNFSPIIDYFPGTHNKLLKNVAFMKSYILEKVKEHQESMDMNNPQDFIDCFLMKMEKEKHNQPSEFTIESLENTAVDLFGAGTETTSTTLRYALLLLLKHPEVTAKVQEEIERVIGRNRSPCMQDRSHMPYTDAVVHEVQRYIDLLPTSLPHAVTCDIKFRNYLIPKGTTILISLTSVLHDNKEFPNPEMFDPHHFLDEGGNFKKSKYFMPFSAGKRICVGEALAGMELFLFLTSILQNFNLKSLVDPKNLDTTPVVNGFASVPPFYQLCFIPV

[8] = target: Cytochrome P450 2C19 (Homo sapiens, UniProt P33261); assay: Cytochrome panel assay with activity outcomes. Panel member name: p450-cyp2c19 Compounds with AC50 equal or less than 10 uM are considered active; type: functional
Sequence of Cytochrome P450 2C19 (P33261 whole entry): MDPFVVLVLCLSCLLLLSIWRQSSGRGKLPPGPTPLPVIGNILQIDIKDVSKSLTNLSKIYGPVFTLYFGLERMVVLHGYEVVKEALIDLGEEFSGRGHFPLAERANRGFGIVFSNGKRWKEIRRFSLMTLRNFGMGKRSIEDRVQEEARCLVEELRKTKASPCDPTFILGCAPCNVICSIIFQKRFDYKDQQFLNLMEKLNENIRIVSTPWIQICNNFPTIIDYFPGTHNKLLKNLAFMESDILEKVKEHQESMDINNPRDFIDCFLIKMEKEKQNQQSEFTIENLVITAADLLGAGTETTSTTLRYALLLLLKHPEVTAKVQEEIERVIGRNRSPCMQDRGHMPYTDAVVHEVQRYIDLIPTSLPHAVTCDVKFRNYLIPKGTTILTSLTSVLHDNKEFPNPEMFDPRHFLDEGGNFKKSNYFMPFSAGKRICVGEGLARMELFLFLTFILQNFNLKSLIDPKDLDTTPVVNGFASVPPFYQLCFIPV

[9] = NIH-3T3 fibroblast cytotoxicity, dose response, cytotoxicity control, cell-based, fluorescence, Alamar Blue, secondary assay (AID 2327); type: functional;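 further: NIH-3T3 mouse fibroblasts cultured with fluconazole at 8 µg/mL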

Sequence of Cytochrome P450 2D6 (P10635 whole entry): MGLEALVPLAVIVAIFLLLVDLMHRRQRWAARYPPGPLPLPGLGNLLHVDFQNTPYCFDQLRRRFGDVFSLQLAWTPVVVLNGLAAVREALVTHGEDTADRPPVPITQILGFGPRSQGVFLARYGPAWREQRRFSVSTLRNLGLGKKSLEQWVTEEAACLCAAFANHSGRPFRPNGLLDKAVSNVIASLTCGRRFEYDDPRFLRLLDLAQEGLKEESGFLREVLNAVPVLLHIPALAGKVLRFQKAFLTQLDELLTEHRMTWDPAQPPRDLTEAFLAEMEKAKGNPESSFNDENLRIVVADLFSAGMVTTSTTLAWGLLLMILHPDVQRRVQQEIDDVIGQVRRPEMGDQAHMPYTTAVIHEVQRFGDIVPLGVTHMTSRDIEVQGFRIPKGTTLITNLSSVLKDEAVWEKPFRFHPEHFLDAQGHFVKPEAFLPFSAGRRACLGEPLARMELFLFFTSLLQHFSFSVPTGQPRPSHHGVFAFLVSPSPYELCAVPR

C[C@H](N)C1CCC(C(=O)Nc2ccncc2)CC1 (stereo partly drawn)
AC50 [1]: 15.8 µM (inconclusive)
AC50 [2]: 15.8 µM (inconclusive)

O=C(CSc1c[nH]c2ccccc12)N1CCOCC1
AC50 [3]: 17.8 µM (inconclusive)

COc1cccc(Nc2ncc3nc(-c4cn(C)c5ccccc45)c(=O)n(CCC#N)c3n2)c1
AC50 [3]: 20 µM (inconclusive)
AC50 [2]: 1.58 µM (inconclusive)

c1ccc(CN2CC[C@@]3(CCCNC3)C2)cc1
AC50 [1]: 15.8 µM (inconclusive)
AC50 [2]: 10 µM (inconclusive)

O=C(COC(=O)c1cccc(S(=O)(=O)N2CCOCC2)c1)Nc1nc(-c2ccccc2Cl)cs1
AC50 [3]: 8.91 µM (inconclusive)
AC50 [2]: 11.2 µM (inconclusive)

O=C(NC1(C(F)(F)F)NC(=O)N(Cc2cccnc2)C1=O)c1ccccc1 (stereo not drawn)
EC50 [4]: > 120 µM (not active)
EC50 [5]: > 120 µM (not active)
EC50 [6]: > 120 µM (not active)
AC50 [2]: 0.891 µM (inconclusive)
AC50 [7]: 17.8 µM (inconclusive)

CN(Cc1ccc(-n2cccn2)cc1)C(=O)c1cnn2c1NC(c1ccco1)CC2C(F)(F)F (stereo not drawn)
EC50 [4]: > 120 µM (not active)
EC50 [5]: > 120 µM (not active)
EC50 [6]: 31.5 µM (active)

O=C(CSc1nnnn1-c1ccccc1)NCc1cccs1
AC50 [3]: 31.6 µM (inconclusive)

Cn1cccc1C(=O)N1CCC2(CCCN(Cc3ccc(C#N)cc3)C2)CC1
AC50 [3]: 12.6 µM (inconclusive)
AC50 [2]: 15.8 µM (inconclusive)

CCOc1c2ccc(C(=O)NCc3ccc(OC(F)(F)F)cc3)cc2nn1CC
AC50 ([8]; read-out: AC50): 39.8 µM (inconclusive)
AC50 [1]: 25.1 µM (inconclusive)
AC50 [3]: 14.1 µM (inconclusive)
AC50 [7]: 39.8 µM (inconclusive)

N#C/C=C1\n2c(nc3ccccc32)OC12CCCCC2
EC50 [4]: > 120 µM (not active)
EC50 [5]: > 120 µM (not active)
EC50 [6]: > 120 µM (not active)

CC(=O)N1CCC2(CCCN(Cc3cc(C(F)(F)F)cc(C(F)(F)F)c3)C2)CC1
AC50 [1]: 39.8 µM (inconclusive)
AC50 [2]: 15.8 µM (inconclusive)

COc1ccc(C(=O)N2CCC3(CC2)CN(Cc2ccc(C#N)cc2)C3)cc1
AC50 [1]: 12.6 µM (inconclusive)
AC50 [2]: 0.631 µM (inconclusive)

Nc1nnnn1CCO
AC50 [3]: 6.31 µM (inconclusive)

O=C(Nc1ccccc1N1CCOCC1)c1ccc(S(=O)(=O)NCc2ccco2)cc1
EC50 [9]: > 150 µM (inactive)

COC(=O)CCC(=O)NNC(=O)c1ccc(Br)cc1
AC50 [3]: 11.2 µM (inconclusive)

O=C1COc2ccc(OCc3ccc(F)cc3)cc21
AC50 [3]: 7.08 µM (inconclusive)

CC(=O)Nc1nnc(CCN2CCCCC2)s1
AC50 [8]: inconclusive
AC50 [1]: 1.26 µM (inconclusive)

Cc1ccc(CSc2nc3c(c(=O)[nH]c(=O)n3C)n2CCC(C)C)cc1
EC50 [4]: 24.8 µM (active)
EC50 [5]: 19.4 µM (active)
EC50 [6]: 16.2 µM (active)

CCNc1ncc2nc(-c3cccc(C#N)c3)c(=O)n(C)c2n1
AC50 [1]: 2 µM (inconclusive)
AC50 [2]: 31.6 µM (inconclusive)

Cc1cnc(CNc2ncnc3ccc(-c4ccccc4C(F)(F)F)cc23)cn1
AC50 ([8]; read-out: AC50): 20 µM (inconclusive)
AC50 [1]: 25.1 µM (inconclusive)

O=C(NCC1CCCO1)c1nn2c(c1Cl)NC(c1ccc(F)cc1)CC2C(F)(F)F (stereo not drawn)
AC50 [3]: 12.6 µM (inconclusive)
AC50 [2]: 14.1 µM (inconclusive)

Cc1ccc(S(=O)(=O)N2CCCC(C(=O)NCCCN3CCCCC3C)C2)cc1 (stereo not drawn)
AC50 [8]: inconclusive
AC50 [1]: 17.8 µM (inconclusive)

O=C(OCCN1CCOCC1)C1(c2ccccc2)CCCCC1
AC50 ([8]; read-out: AC50): 6.31 µM (inconclusive) and 10 µM (inconclusive)
AC50 [1]: 12.6 µM (inconclusive) and 6.31 µM (inconclusive)
AC50 [3]: 31.6 µM (inconclusive)
AC50 [7]: 10 µM (inconclusive) and 15.8 µM (inconclusive)

CN(C)c1ccc(/N=C/c2cccn2C)cc1
EC50 [9]: 25.9 µM (active)
